Consider one molecule from publication PMC3765993, “The duration of sleep promoting efficacy by dual orexin receptor antagonists is dependent upon receptor occupancy threshold” (BMC Neuroscience, 2013).

Series [1] deals with rhesus monkeys. Briefly: Rhesus monkey polysomnography (active wake). The series is classed as in vivo. The following applies: 10 mg/kg p.o. 2 h before lights out, 10 mg/kg. On the procedure: Animals were fed on a calorie-controlled diet of laboratory chow supplemented with fruit and vegetables. Water was available ad libitum with the exception of those monkeys trained to perform cognitive tasks, for which access was restricted for up to 4 h prior to and during cognitive testing. Treatment occurred at 14:40 (Zeitgeber time [ZT] 10:10) in a balanced 1-day cross-over design: 1 day of drug or vehicle followed by 6 days of baseline followed by 1 day of vehicle or drug. Cognition tasks were scheduled for next-day evaluation as described below. Sleep/wake architecture was scored according to vigilance state (active wake, quiet wake, delta sleep I, delta sleep II, and REM sleep) at 30-minute intervals and analyzed as previously described. Spectral analysis of continuous EEG was quantified between vehicle and compound after binning continuous frequencies into canonical frequency bands (reported herein: Delta, 0.5 – 4 Hz; Theta, 4.0 – 7 Hz; Gamma, 35.0 – 100.0 Hz). qEEG values are spectral power (uV2) log transformed before analysis and averaged over 30-minute intervals, expressed as means +/− SEM, and compared with vehicle using a mixed-model ANOVA at each time point with random effects for subject and date within subject in the R statistical computing environment (cran.us.r-project.org; the R Foundation for Statistical Computing, Vienna, Austria) using a linear mixed effects model for significance testing.

The test system of series [2] is rhesus monkeys. Particulars: sleep-promoting doses; cited from earlier work.
Series [3] has as its system rhesus monkeys. Briefly: Monkey Delayed Match to Sample (DMS) task. The series is classed as in vivo. The following applies: 10 mg/kg p.o., versus vehicle. The text has this:
All cognition testing occurred in the animal’s home cage equipped with a touchscreen. Each DMS trial was initiated with a single ‘sample’ image (150 × 200 pixels: 1.8 inches × 2.3 inches) in one of eight colors presented at the center of a touchscreen. Evaluation began when the monkey touched the sample image, at which point the screen became blank for a retention period. Following the retention period, four choice images (150 × 200 pixels) were presented, one in each corner of the screen. One of the four choice images matched the color of the sample image, whereas the three remaining ‘distractor’ images were drawn from the pool of remaining colors. A reinforcer was provided when the monkey touched the choice image that matched the color of the sample image. […] Test sessions comprised 96 trials or lasted for up to 45 min. […] Response latencies to sample and choice images were also recorded. Values reported reflect the proportion of correct responses collapsed over all retention intervals. Differences from vehicle were examined using repeated measures ANOVA.

The test system of series [4] is rhesus monkeys. Briefly: Monkey Serial Choice Reaction Time (SCRT) task. It counts as in vivo. Particulars: 10 mg/kg p.o., versus vehicle, 10 mg/kg. The text has this:
Each SCRT trial was initiated with the appearance of 10 blue square ‘target’ images evenly distributed at 3-inch intervals around the perimeter of a touchscreen presented together with a centrally located circular ‘centering’ image (1.4 inch diameter circle). The task began with the monkey touching the centering image, which then turned gray. The monkey was then required to touch the centering image continuously throughout a variable pre-cue interval of 0.25-7.5 s. On completion of the pre-cue interval, one of the blue target images was cued by turning red for one of four cue durations before turning back to blue. To obtain a reward, the monkey was required to touch the target image that had been ‘cued’ red within a 5 s limited hold period. […] On completion of the trial, an inter-trial interval of 2 s was initiated prior to the next trial. […] If the monkey initiated a trial but removed its hand from the touchscreen prior to the appearance of the cue, the trial was terminated and the screen was blanked during a 2 s inter-trial interval. Sessions were terminated after 20 min. Cue location and duration were pseudo-randomly assigned. Cue duration and the target size were titrated for each subject on the basis of performance during previous baseline sessions to yield a performance of 60–80% correct responses for the trials of the shortest cue duration. The briefest cue duration varied from 0.04–0.1 s and the cues varied in size from 0.2–0.7 inches, although each cue had the same touch-sensitive area of 1.75 inches. Values reported in the current study reflect the proportion of correct responses to targets after cues of the shortest duration only.

Regarding `CN1C(=O)CN=C(c2ccccc2)c2cc(Cl)ccc21` [Diazepam], the “Active wake late in the inactive phase and next morning (residual sleep effect)” value in the series on rhesus monkeys [1] is “promoted sleep throughout the normal resting period and into the subsequent active phase”; in the series with rhesus monkeys [1] (listed as diazepam), “significantly attenu-ated active wake”. In addition, in the series on rhesus monkeys [2], the “Cognitive assessment in DMS and SCRT tasks within 2 h following treatment” value is listed as “substantial deficits”. In addition, the “Next-day recognition memory (DMS), 14 h after dosing” value in the series with rhesus monkeys [3] is “impacted memory and attention”; in the series with rhesus monkeys [3] (listed as diazepam), “Significant deficits”. For the same molecule, the “Next-day attention (SCRT, correct responses to shortest cues), 16 h after dosing” value is “impacted memory and attention” in the series on rhesus monkeys [4]; “significant deficits” with rhesus monkeys [4] (listed as diazepam).
